Experimental data taken from publication PMC9841523 (Journal of Medicinal Chemistry, 2022).
Values joined by “and” are separate entries in the source; they are usually repeats but may differ in a detail not shown here. Equal values may be shown once. Read-outs that look alike come from different tables or passages of the source.

Experiments:
PI4KA, PI4KAP2 = assay: KiNativ kinase panel; assay type: cell-based, human; details: 1 μM, MCF-7 Cells, ATP
FYN, SRC, YES = assay: KiNativ kinase panel; assay type: cell-based, human; details: 1 μM, MCF-7 Cells, Activation Loop
AurA, AurB, AurC = assay: KiNativ kinase panel; assay type: cell-based, human; details: 1 μM; MCF-7 Cells; ATP Loop; GKFGNVYLAR
JAK1_Domain2 domain2 = biological target: T1, JAK1_Domain2 domain2 (Homo sapiens, UniProt P23458); assay: KiNativ kinase panel; assay type: cell-based; details: 1 μM, MCF-7 Cells
T1 construct: endogenous in cells; host or cells: MCF7
T1 sequence (P23458 whole entry, the tested form may be a part): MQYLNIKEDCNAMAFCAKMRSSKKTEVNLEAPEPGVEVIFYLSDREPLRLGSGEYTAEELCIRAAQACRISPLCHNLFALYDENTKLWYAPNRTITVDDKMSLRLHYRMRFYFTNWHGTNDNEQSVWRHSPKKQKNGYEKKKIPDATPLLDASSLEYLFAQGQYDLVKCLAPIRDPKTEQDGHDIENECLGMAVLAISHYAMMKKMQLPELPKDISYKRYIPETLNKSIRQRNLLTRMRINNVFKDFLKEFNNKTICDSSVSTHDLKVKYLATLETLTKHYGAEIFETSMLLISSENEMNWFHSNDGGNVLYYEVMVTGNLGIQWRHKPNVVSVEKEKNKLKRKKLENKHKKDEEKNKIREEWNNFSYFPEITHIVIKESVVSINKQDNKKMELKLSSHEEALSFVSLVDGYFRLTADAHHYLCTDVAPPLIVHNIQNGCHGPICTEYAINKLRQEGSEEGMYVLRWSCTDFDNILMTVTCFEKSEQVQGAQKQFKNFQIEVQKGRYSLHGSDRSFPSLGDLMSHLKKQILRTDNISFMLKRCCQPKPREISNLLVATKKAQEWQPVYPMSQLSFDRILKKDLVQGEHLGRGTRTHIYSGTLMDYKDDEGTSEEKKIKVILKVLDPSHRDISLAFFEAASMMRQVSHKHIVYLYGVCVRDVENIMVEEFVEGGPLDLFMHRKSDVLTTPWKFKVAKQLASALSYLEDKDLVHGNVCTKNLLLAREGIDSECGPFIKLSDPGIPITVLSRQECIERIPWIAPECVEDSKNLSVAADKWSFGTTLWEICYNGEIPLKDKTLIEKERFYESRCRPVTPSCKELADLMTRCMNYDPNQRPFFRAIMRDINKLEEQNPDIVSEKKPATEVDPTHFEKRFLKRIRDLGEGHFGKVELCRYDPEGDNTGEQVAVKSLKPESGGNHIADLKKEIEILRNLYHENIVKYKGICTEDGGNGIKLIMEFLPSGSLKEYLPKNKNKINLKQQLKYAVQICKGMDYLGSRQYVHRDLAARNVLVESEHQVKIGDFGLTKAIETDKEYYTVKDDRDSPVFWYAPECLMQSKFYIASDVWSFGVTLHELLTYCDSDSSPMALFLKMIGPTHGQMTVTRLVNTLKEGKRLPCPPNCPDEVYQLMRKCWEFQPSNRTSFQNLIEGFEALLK

AKT2, AKT3 = assay: KiNativ kinase panel; assay type: cell-based, human; details: 1 μM, MCF-7 Cells, ATP Loop
MST3, MST4, YSK1 = assay: KiNativ kinase panel; assay type: cell-based, human; details: 1 μM, MCF-7 Cells, Activation Loop
p38a = biological target: T2, p38a (Homo sapiens, UniProt Q16539); assay: KiNativ kinase panel; assay type: cell-based; details: 1 μM, MCF-7 Cells
T2 construct: purchased ActivX Biosciences (KiNativ)
T2 sequence (Q16539 whole entry): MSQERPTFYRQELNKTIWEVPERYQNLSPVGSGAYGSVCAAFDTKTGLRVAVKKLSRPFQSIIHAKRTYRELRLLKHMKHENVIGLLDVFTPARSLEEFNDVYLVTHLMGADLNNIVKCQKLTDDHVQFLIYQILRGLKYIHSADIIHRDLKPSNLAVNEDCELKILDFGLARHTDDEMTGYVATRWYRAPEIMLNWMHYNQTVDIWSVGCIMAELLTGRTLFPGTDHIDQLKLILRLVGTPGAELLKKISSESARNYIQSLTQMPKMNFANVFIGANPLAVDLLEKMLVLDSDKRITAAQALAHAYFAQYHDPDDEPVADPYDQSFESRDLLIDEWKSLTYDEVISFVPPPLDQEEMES

CSK = biological target: T3, CSK (Homo sapiens, UniProt P41240); assay: KiNativ kinase panel; assay type: cell-based; details: 1 μM, MCF-7 Cells
T3 construct: MCF7 cells were exposed to; endogenous in cells; host or cells: MCF7
T3 sequence (P41240 whole entry): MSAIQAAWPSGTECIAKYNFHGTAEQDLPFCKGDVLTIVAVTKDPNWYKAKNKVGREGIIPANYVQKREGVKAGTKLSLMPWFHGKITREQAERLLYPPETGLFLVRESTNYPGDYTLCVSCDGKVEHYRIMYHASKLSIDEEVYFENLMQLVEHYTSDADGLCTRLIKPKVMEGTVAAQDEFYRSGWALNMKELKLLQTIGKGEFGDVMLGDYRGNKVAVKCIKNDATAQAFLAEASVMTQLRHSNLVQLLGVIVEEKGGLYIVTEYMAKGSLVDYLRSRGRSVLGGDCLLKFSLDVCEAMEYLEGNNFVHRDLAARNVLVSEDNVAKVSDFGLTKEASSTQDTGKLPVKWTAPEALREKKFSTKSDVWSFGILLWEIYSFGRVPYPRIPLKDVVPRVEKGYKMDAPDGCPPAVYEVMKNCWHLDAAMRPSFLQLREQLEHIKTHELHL

[1] = tested on: CaMK2a, CaMK2b, CaMK2d, CaMK2g; assay: KiNativ kinase panel; assay type: cell-based; details: 1 μM, MCF-7 Cells, Lys2
IRAK4 = biological target: T4, IRAK4 (Homo sapiens, UniProt Q9NWZ3); assay: KiNativ kinase panel; assay type: cell-based; details: 1 μM, MCF-7 Cells
T4 construct: MCF7 cells were exposed to; endogenous in cells; host or cells: MCF7
T4 sequence (Q9NWZ3 1-460): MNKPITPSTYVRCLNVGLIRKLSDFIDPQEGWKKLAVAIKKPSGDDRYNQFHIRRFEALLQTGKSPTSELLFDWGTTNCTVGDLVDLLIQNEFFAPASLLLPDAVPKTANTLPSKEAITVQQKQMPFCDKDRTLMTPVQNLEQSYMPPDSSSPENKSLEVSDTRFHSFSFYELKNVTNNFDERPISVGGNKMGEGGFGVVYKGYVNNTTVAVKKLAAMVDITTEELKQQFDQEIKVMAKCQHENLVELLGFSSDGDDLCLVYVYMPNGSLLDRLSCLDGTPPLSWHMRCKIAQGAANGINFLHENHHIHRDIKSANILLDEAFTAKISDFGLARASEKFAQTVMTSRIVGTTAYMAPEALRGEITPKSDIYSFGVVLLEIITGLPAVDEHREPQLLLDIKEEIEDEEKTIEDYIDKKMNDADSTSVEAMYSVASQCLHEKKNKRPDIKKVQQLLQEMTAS

DNA-PK = biological target: T5, DNA-PK (Homo sapiens, UniProt P78527); assay: Nanosyn Lipid Kinase screen; assay type: biochemical
T5 construct: purchased Promega V4106
Method: complex formation) controls.
Nanosyn Lipid Kinase screen. Biochemical inhibition of lipid and related protein kinases was determined by Nanosyn (Santa Clara, CA). […]
ADP formation using ADP-Glo (Promega). Kinase reactions were assembled in 384 well plates in a total volume of 20 µL as follows. […]
Compounds were serially pre-diluted in DMSO and added to the protein samples by acoustic dispensing (200 nL, Labcyte Echo). Concentration of DMSO was equalized to 1% in all samples. All test compounds were tested at 12 concentrations, 3x dilution intervals. The control samples (0%-inhibition in the absence of inhibitor, DMSO only) and 100%-inhibition (in the absence of enzyme) were assembled in replicates of four and were used to calculate %-inhibition in the presence of compounds. […]

PIP5K3 = biological target: T6, PIP5K3 (Homo sapiens, UniProt Q9Y2I7); assay: KiNativ kinase panel; assay type: cell-based; details: 1 μM; MCF-7 Cells; ATP; GGKSGAAFYATEDDRFILK
T6 construct: purchased ActivX Biosciences (KiNativ)

IKKe, TBK1 = assay: KiNativ kinase panel; assay type: cell-based, human; details: 1 μM; MCF-7 Cells; Lys2; DIKPGNIMR
MAP2K7 = biological target: T7, MAP2K7 (Homo sapiens, UniProt O14733); assay: KiNativ kinase panel; assay type: cell-based; details: 1 μM; MCF-7 Cells; Lys2; DVKPSNILLDER
T7 construct: MCF7 cells were exposed to; endogenous in cells; host or cells: MCF7
T7 sequence (O14733 whole entry): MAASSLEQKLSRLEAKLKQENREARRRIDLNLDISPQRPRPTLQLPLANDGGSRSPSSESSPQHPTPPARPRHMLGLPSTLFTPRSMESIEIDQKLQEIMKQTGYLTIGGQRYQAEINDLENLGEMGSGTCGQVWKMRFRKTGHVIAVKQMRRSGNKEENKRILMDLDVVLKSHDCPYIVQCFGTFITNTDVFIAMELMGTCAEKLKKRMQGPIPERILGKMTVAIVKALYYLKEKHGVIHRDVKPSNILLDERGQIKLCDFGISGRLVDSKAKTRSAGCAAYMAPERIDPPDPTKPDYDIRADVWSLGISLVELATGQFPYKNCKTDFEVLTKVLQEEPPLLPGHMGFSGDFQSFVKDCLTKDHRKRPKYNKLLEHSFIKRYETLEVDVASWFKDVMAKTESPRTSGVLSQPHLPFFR

SYK = biological target: T8, SYK (Homo sapiens, UniProt P43405); assay: KiNativ kinase panel; assay type: cell-based; details: 1 μM, MCF-7 Cells
T8 construct: MCF7 cells were exposed to; endogenous in cells; host or cells: MCF7

MST4, YSK1 = assay: KiNativ kinase panel; assay type: cell-based, human; details: 1 μM, MCF-7 Cells, Lys2
JNK1, JNK2, JNK3 = assay: KiNativ kinase panel; assay type: cell-based, human; details: 1 μM, MCF-7 Cells, Lys2
NEK6, NEK7 = assay: KiNativ kinase panel; assay type: cell-based, human; details: 1 μM, MCF-7 Cells, Lys2
[2] = Mouse pharmacokinetics, IP administration; assay type: in vivo; details: male Balb/c mice, 1 mg/kg IP, mean ± SD, n = 3
Method: Mouse Pharmacokinetic Studies. Male Balb/C mice were non-fasted on the day of dosing. PK […]
plasma were conducted using an AB Sciex Triple Quad 6500+ mass spectrometer coupled with a Waters UPLC system. Supernatants were collected by centrifugation after protein precipitation using MeCN containing internal standard (IS, D4-AEA). Supernatant was injected for LC- […]
μm) column. The LC mobile phase (A: 5 mM NH 4OAc in H 2O; B: MeCN/MeOH 50/50)

ABL, ARG = assay: KiNativ kinase panel; assay type: cell-based, human; details: 1 μM, MCF-7 Cells
NuaK2 = biological target: T9, NuaK2 (Homo sapiens, UniProt Q9H093); assay: KiNativ kinase panel; assay type: cell-based; details: 1 μM; MCF-7 Cells; Lys1; LVAIKSIR
T9 construct: purchased ActivX Biosciences (KiNativ)
T9 sequence (Q9H093 whole entry): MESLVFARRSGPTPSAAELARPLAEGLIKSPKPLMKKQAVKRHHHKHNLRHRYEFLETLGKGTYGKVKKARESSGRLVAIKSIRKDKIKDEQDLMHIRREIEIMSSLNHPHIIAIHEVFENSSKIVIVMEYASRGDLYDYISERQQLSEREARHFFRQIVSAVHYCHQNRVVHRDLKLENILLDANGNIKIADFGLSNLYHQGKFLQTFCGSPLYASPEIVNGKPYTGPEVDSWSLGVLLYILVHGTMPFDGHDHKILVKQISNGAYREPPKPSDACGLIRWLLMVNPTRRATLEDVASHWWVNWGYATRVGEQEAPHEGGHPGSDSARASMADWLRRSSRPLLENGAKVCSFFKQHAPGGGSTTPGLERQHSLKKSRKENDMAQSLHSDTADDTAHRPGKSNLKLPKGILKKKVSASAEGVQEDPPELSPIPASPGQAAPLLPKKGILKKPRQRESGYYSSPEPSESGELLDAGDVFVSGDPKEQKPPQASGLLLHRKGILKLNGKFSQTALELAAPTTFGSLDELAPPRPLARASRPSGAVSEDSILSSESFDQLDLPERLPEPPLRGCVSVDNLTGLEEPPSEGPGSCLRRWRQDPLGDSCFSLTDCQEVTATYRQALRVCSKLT

TAO1, TAO3 = assay: KiNativ kinase panel; assay type: cell-based, human; details: 1 μM, MCF-7 Cells, Lys2
[3] = Activation Loop, IGDFGLTKAIETDKEYYTVK
[4] = Lys1, YDPEGDNTGEQVAVKSLKPESGGNHIADLKK
[5] = Activation Loop, VSDFGLTKEASSTQDTGKLPVK

For `CO[C@H]1C[C@@H]2CC[C@@H](C)[C@@](O)(O2)C(=O)C(=O)N2CCCC[C@H]2C(=O)O[C@H]([C@H](C)C[C@@H]2CC[C@@H](OC(=O)NCCOCCOCCOCCOCCOCCOCCOCCOCCC(=O)N3CCc4cc(Cn5nc(-c6ccc7oc(N)nc7c6)c6c(N)ncnc65)ccc4C3)[C@H](OC)C2)C[C@@H](O)[C@H](C)/C=C(\C)[C@@H](O)[C@@H](OC)C(=O)[C@H](C)C[C@H](C)/C=C/C=C/C=C/1C` [compound 38], the “KiNativ Kinase Panel Data” value (PI4KA, PI4KAP2; […]) was -38.9, the “KiNativ Kinase Panel Data” value (FYN, SRC, YES; […]) was -6.3 and the “KiNativ Kinase Panel Data” value (AurA, AurB, AurC) was 34.8. The “KiNativ Kinase Panel Data” value (JAK1_Domain2 domain2; [3]) was 31.3, the “KiNativ Kinase Panel Data” value (JAK1_Domain2 domain2; [4]) was 26.2 and the “KiNativ Kinase Panel Data” value (AKT2, AKT3; […]) was -13.5. The “KiNativ Kinase Panel Data” value (MST3, MST4, YSK1; […]) was 12.4, the “KiNativ Kinase Panel Data” value (p38a; Lys2, DLKPSNLAVNEDCELK) was -4.3 and the “KiNativ Kinase Panel Data” value (p38a; Other, QELNKTIWEVPER) was -5.2. The “KiNativ Kinase Panel Data” value (CSK; [5]) was 1.9, the “KiNativ Kinase Panel Data” value (CSK; Lys1, VAVKCIK) was 13.6 and the “KiNativ Kinase Panel Data” value ([1]; […]) was 26.2. For the same compound, the “KiNativ Kinase Panel Data” value (IRAK4; Lys1, GYVNNTTVAVKK) was -7.0, the “KiNativ Kinase Panel Data” value (IRAK4; Lys2, DIKSANILLDEAFTAK) was -19.3 and the IC50 (DNA-PK) was over 1 µM. For the same compound, the “KiNativ Kinase Panel Data” value (PIP5K3) was 0.8, the “KiNativ Kinase Panel Data” value (IKKe, TBK1) was -33.9 and the “KiNativ Kinase Panel Data” value (MAP2K7) was 20.9. The “KiNativ Kinase Panel Data” value (SYK; Activation Loop, ISDFGLSKALR) was 18.4, the “KiNativ Kinase Panel Data” value (SYK; Activation Loop, […]) was 6.4 and the “KiNativ Kinase Panel Data” value (SYK; Lys1, TVAVKILK) was 14.0. For the same compound, the “KiNativ Kinase Panel Data” value (MST4, YSK1; […]) was 10.5, the “KiNativ Kinase Panel Data” value (JNK1, JNK2, JNK3; […]) was 13.8 and the “KiNativ Kinase Panel Data” value (NEK6, NEK7; […]) was 11.1. For the same compound, the AUC(0-t) ([2]; mouse, in vivo) was 25.9 ± 3 µM·h, the Cmax ([2]; mouse, in vivo) was 5670 ng/mL and 3.19 µM and the half-life ([2]; mouse, in vivo) was 4.8 ± 0.4 h. The Tmax ([2]; mouse, in vivo, read-out: Tmax) was 2 h, the “KiNativ Kinase Panel Data” value (ABL, ARG; Activation Loop, […]) was -3.4 and the “KiNativ Kinase Panel Data” value (ABL, ARG; Lys1, […]) was -1.3. For the same compound, the “KiNativ Kinase Panel Data” value (NuaK2) was 18.8 and the “KiNativ Kinase Panel Data” value (TAO1, TAO3; […]) was -1.7.

With `CO[C@H]1C[C@@H]2CC[C@@H](C)[C@@](O)(O2)C(=O)C(=O)N2CCCC[C@H]2C(=O)O[C@H]([C@H](C)C[C@@H]2CC[C@@H](OC(=O)NCCOCCOCCOCCOCCOCCOCCOCCOCCC(=O)NCCS(=O)(=O)c3ccc(C(=O)N4CCOc5ccc(-c6ccc(N)nc6)cc5C4)c(C)c3F)[C@H](OC)C2)C[C@@H](O)[C@H](C)/C=C(\C)[C@@H](O)[C@@H](OC)C(=O)[C@H](C)C[C@H](C)/C=C/C=C/C=C/1C` [compound 40] the “KiNativ Kinase Panel Data” value (PI4KA, PI4KAP2; SGTPMQSAAKAPYLAK) was -5.7, the “KiNativ Kinase Panel Data” value (FYN, SRC, YES; QGAKFPIKWTAPEAALYGR) was -28.5 and the “KiNativ Kinase Panel Data” value (AurA, AurB, AurC) was -3.6. For the same compound, the “KiNativ Kinase Panel Data” value (JAK1_Domain2 domain2; [3]) was 19.5, the “KiNativ Kinase Panel Data” value (JAK1_Domain2 domain2; [4]) was 13.3 and the “KiNativ Kinase Panel Data” value (AKT2, AKT3; GTFGKVILVR) was -101.1. For the same compound, the “KiNativ Kinase Panel Data” value (MST3, MST4, YSK1; LADFGVAGQLTDTQIKR) was 20.4, the “KiNativ Kinase Panel Data” value (p38a; Lys2, DLKPSNLAVNEDCELK) was -6.8 and the “KiNativ Kinase Panel Data” value (p38a; Other, QELNKTIWEVPER) was -1.6. For the same compound, the “KiNativ Kinase Panel Data” value (CSK; [5]) was 5.5, the “KiNativ Kinase Panel Data” value (CSK; Lys1, VAVKCIK) was 17.7 and the “KiNativ Kinase Panel Data” value ([1]; DLKPENLLLASK) was -30.6. For the same compound, the “KiNativ Kinase Panel Data” value (IRAK4; Lys1, GYVNNTTVAVKK) was -35.0, the “KiNativ Kinase Panel Data” value (IRAK4; Lys2, DIKSANILLDEAFTAK) was -35.4 and the IC50 (DNA-PK; Nanosyn, with FKBP12) was over 1 µM. For the same compound, the “KiNativ Kinase Panel Data” value (PIP5K3) was 19.9, the “KiNativ Kinase Panel Data” value (IKKe, TBK1) was -21.1 and the “KiNativ Kinase Panel Data” value (MAP2K7) was -14.8. The “KiNativ Kinase Panel Data” value (SYK; Activation Loop, AQTHGKWPVK) was 13.3, the “KiNativ Kinase Panel Data” value (SYK; Activation Loop, ISDFGLSKALR) was -14.3 and the “KiNativ Kinase Panel Data” value (SYK; Lys1, TVAVKILK) was -3.7. The “KiNativ Kinase Panel Data” value (MST4, YSK1; DIKAANVLLSEQGDVK) was -10.1, the “KiNativ Kinase Panel Data” value (JNK1, JNK2, JNK3; DLKPSNIVVK) was -9.5 and the “KiNativ Kinase Panel Data” value (NEK6, NEK7; DIKPANVFITATGVVK) was -12.6. It also gave a Tmax [2] of 2.3 ± 1.5 h, a t1/2 [2] of 3.8 ± 0.6 h and an AUClast ([2]; 1 mg/kg) of 8.7 ± 1.2 µM·h. The “KiNativ Kinase Panel Data” value (ABL, ARG; Activation Loop, LMTGDTYTAHAGAKFPIK) was 16.3, the “KiNativ Kinase Panel Data” value (ABL, ARG; Lys1, YSLTVAVKTLKEDTMEVEEFLK) was -25.3 and the “KiNativ Kinase Panel Data” value (NuaK2) was 16.0. For the same compound, the “KiNativ Kinase Panel Data” value (TAO1, TAO3; DIKAGNILLTEPGQVK) was -29.7.
